Test results taken from ChEMBL document CHEMBL5352447, “Development of [1,2]oxazoloisoindoles tubulin polymerization inhibitors: Further chemical modifications and potential therapeutic effects against lymphomas” (Eur J Med Chem, 2022).
pIC50: −log10 of the molar value.

Test system: VL51
Assay: Antiproliferative activity against human VL51 cells assessed as proliferating cells at 1 uM incubated for 72 hrs by MTT assay relative to control
Type: functional
Conditions: not given

Which Activity does the source give for `COc1cccc(Cn2cc3c(c2)-c2oncc2CC3)c1` here?
Its Activity is 44.7%.

For `COc1ccc(Cn2cc3c(c2-c2ccccc2)CCc2cnoc2-3)cc1N`, which Activity is on record?
The Activity was 37.6%.

Which Activity does the source give for `COc1ccc(Cn2cc3c(c2-c2cc(OC)c(OC)c(OC)c2)CCc2cnoc2-3)cc1` here?
Its Activity is 37.9%.

Test system: not listed separately
Assay: Antiproliferative activity against human MINO cells assessed as proliferating cells at 1 uM incubated for 72 hrs by MTT assay relative to control
Type: functional
Conditions: not given

For `COc1cccc(Cn2cc3c(c2)-c2oncc2CC3)c1`, which Activity is on record?
The Activity was 8.9%.

With `COc1ccc(Cn2cc3c(c2-c2ccccc2)CCc2cnoc2-3)cc1N` as the compound, how does the Activity read?
Its Activity is 10.5%.

For `COc1ccc(Cn2cc3c(c2-c2cc(OC)c(OC)c(OC)c2)CCc2cnoc2-3)cc1`, which Activity is on record?
The Activity was 8.7%.

Test system: not listed separately
Assay: Antiproliferative activity against human HBL1 cells assessed as proliferating cells at 1 uM incubated for 72 hrs by MTT assay relative to control
Type: functional
Conditions: not given

Which Activity does the source give for `COc1cccc(Cn2cc3c(c2)-c2oncc2CC3)c1` here?
Its Activity is 37.9%.

Which Activity does the source give for `COc1ccc(Cn2cc3c(c2-c2ccccc2)CCc2cnoc2-3)cc1N` here?
The Activity was 27.6%.

With `COc1ccc(Cn2cc3c(c2-c2cc(OC)c(OC)c(OC)c2)CCc2cnoc2-3)cc1` as the compound, how does the Activity read?
Its Activity is 30.7%.

Test system: SU-DHL10
Assay: Antiproliferative activity against human SU-DHL-10 cells assessed as proliferating cells at 1 uM incubated for 72 hrs by MTT assay relative to control
Type: functional
Conditions: not given

For `COc1cccc(Cn2cc3c(c2)-c2oncc2CC3)c1`, which Activity is on record?
The Activity was 14%.

Which Activity does the source give for `COc1ccc(Cn2cc3c(c2-c2ccccc2)CCc2cnoc2-3)cc1N` here?
Its Activity is 13%.

For `COc1ccc(Cn2cc3c(c2-c2cc(OC)c(OC)c(OC)c2)CCc2cnoc2-3)cc1`, which Activity is on record?
Its Activity is 12.7%.

Test system: VL51
Assay: Antiproliferative activity against human VL51 cells assessed as inhibition of cell proliferation incubated for 72 hrs by MTT assay
Type: functional, cell-based
Conditions: VL51, 72 h

With `COc1cccc(Cn2cc3c(c2)-c2oncc2CC3)c1` as the compound, how does the pIC50 read?
Its pIC50 is 6.00.

With `COc1ccc(Cn2cc3c(c2-c2ccccc2)CCc2cnoc2-3)cc1N` as the compound, how does the pIC50 read?
Its pIC50 is 6.60.

With `COc1ccc(Cn2cc3c(c2-c2cc(OC)c(OC)c(OC)c2)CCc2cnoc2-3)cc1` as the compound, how does the pIC50 read?
Its pIC50 is 6.57.

Test system: not listed separately
Assay: Antiproliferative activity against human MINO cells assessed as inhibition of cell proliferation incubated for 72 hrs by MTT assay
Type: functional, cell-based
Conditions: not given

With `COc1cccc(Cn2cc3c(c2)-c2oncc2CC3)c1` as the compound, how does the pIC50 read?
The pIC50 was 6.15.

With `COc1ccc(Cn2cc3c(c2-c2ccccc2)CCc2cnoc2-3)cc1N` as the compound, how does the pIC50 read?
The pIC50 was 6.64.

With `COc1ccc(Cn2cc3c(c2-c2cc(OC)c(OC)c(OC)c2)CCc2cnoc2-3)cc1` as the compound, how does the pIC50 read?
Its pIC50 is 6.43.

Test system: not listed separately
Assay: Antiproliferative activity against human HBL1 cells assessed as inhibition of cell proliferation incubated for 72 hrs by MTT assay
Type: functional, cell-based
Conditions: HBL1, 72 h

With `COc1cccc(Cn2cc3c(c2)-c2oncc2CC3)c1` as the compound, how does the pIC50 read?
The pIC50 was 6.15.

With `COc1ccc(Cn2cc3c(c2-c2ccccc2)CCc2cnoc2-3)cc1N` as the compound, how does the pIC50 read?
The pIC50 was 6.57.

With `COc1ccc(Cn2cc3c(c2-c2cc(OC)c(OC)c(OC)c2)CCc2cnoc2-3)cc1` as the compound, how does the pIC50 read?
Its pIC50 is 6.33.

Test system: SU-DHL10
Assay: Antiproliferative activity against human SU-DHL-10 cells assessed as inhibition of cell proliferation incubated for 72 hrs by MTT assay
Type: functional, cell-based
Conditions: SU-DHL10, 72 h

With `COc1cccc(Cn2cc3c(c2)-c2oncc2CC3)c1` as the compound, how does the pIC50 read?
The pIC50 was 6.10.

With `COc1ccc(Cn2cc3c(c2-c2ccccc2)CCc2cnoc2-3)cc1N` as the compound, how does the pIC50 read?
Its pIC50 is 6.59.

With `COc1ccc(Cn2cc3c(c2-c2cc(OC)c(OC)c(OC)c2)CCc2cnoc2-3)cc1` as the compound, how does the pIC50 read?
The pIC50 was 6.30.

Test system: MCF7
Assay: Cytotoxicity against human MCF7 cells assessed as cell growth inhibition
Type: functional, cell-based
Conditions: not given

With `COc1cccc(Cn2cc3c(c2)-c2oncc2CC3)c1` as the compound, how does the pIC50 read?
Its pIC50 is 6.26.

With `COc1ccc(Cn2cc3c(c2-c2ccccc2)CCc2cnoc2-3)cc1N` as the compound, how does the pIC50 read?
The pIC50 was 6.43.

With `COc1ccc(Cn2cc3c(c2-c2cc(OC)c(OC)c(OC)c2)CCc2cnoc2-3)cc1` as the compound, how does the pIC50 read?
Its pIC50 is 6.22.

Biological target: Tubulin
Assay: Inhibition of tubulin assembly (unknown origin)
Type: protein-complex assay, Homo sapiens
Conditions: not given

With `COc1cccc(Cn2cc3c(c2)-c2oncc2CC3)c1` as the compound, how does the pIC50 read?
Its pIC50 is 5.28.

With `COc1ccc(Cn2cc3c(c2-c2ccccc2)CCc2cnoc2-3)cc1N` as the compound, how does the pIC50 read?
Its pIC50 is 5.77.

With `COc1ccc(Cn2cc3c(c2-c2cc(OC)c(OC)c(OC)c2)CCc2cnoc2-3)cc1` as the compound, how does the pIC50 read?
The pIC50 was 5.49.

Biological target: Tubulin (Homo sapiens) (UniProt P68371+Q9H4B7+P0DPH7+P68366+Q13509+Q71U36+P04350+Q3ZCM7+P07437+P68363+Q9BQE3+Q6PEY2+Q13885+Q9BVA1+Q9BUF5)
Assay: Inhibition of [3H]Colchicine binding to tubulin (unknown origin) at 5 uM relative to control
Type: protein-complex assay
Conditions: not given

For `COc1cccc(Cn2cc3c(c2)-c2oncc2CC3)c1`, which inhibition is on record?
The inhibition was 69%.

Which inhibition does the source give for `COc1ccc(Cn2cc3c(c2-c2ccccc2)CCc2cnoc2-3)cc1N` here?
Its inhibition is 72%.

For `COc1ccc(Cn2cc3c(c2-c2cc(OC)c(OC)c(OC)c2)CCc2cnoc2-3)cc1`, which inhibition is on record?
The inhibition was 34%.
